Target: ROCK2 (Homo sapiens (Human), UniProt O75116)
Assay: ROCK assay (Caliper LABCHIP peptide phosphorylation)
Assay type: biochemical
Settings: 5 μM ATP, 1.5 μM peptide substrate
Procedure: The effectiveness of compounds of the present invention as ROCK inhibitors can be determined in a 30 μL assay containing 20 mM HEPES, pH 7.5, 20 mM MgCl2, 0.015% Brij-35, 4 mM DTT, 5 μM ATP and 1.5 μM peptide substrate (FITC-AHA-AKRRRLSSLRA-OH) (SEQ ID No. 1). Compounds were dissolved in DMSO so that the final concentration of DMSO was <2%, and the reaction was initiated with Rho kinase variants. After incubation, the reaction was terminated by the addition of EDTA and the phosphorylated and non-phosphorylated peptides separated using a LABCHIP® 3000 Reader (Caliper Life Sciences). […] Compounds were tested in dose-response format, and the inhibition of kinase activity was calculated at each concentration of compound. The inhibition data were fit using a curve-fitting program to determine the IC50; i.e., the concentration of compound required to inhibit 50% of kinase activity. Representative Examples were tested in the ROCK assay described above and found having ROCK inhibitory activity. A range of ROCK inhibitory activity (IC50 values) of ≤50 μM (50000 nM) was observed. Table A below lists the ROCK IC50 values measured for the following examples.

Sequence of ROCK2 (O75116 whole entry, species assumed): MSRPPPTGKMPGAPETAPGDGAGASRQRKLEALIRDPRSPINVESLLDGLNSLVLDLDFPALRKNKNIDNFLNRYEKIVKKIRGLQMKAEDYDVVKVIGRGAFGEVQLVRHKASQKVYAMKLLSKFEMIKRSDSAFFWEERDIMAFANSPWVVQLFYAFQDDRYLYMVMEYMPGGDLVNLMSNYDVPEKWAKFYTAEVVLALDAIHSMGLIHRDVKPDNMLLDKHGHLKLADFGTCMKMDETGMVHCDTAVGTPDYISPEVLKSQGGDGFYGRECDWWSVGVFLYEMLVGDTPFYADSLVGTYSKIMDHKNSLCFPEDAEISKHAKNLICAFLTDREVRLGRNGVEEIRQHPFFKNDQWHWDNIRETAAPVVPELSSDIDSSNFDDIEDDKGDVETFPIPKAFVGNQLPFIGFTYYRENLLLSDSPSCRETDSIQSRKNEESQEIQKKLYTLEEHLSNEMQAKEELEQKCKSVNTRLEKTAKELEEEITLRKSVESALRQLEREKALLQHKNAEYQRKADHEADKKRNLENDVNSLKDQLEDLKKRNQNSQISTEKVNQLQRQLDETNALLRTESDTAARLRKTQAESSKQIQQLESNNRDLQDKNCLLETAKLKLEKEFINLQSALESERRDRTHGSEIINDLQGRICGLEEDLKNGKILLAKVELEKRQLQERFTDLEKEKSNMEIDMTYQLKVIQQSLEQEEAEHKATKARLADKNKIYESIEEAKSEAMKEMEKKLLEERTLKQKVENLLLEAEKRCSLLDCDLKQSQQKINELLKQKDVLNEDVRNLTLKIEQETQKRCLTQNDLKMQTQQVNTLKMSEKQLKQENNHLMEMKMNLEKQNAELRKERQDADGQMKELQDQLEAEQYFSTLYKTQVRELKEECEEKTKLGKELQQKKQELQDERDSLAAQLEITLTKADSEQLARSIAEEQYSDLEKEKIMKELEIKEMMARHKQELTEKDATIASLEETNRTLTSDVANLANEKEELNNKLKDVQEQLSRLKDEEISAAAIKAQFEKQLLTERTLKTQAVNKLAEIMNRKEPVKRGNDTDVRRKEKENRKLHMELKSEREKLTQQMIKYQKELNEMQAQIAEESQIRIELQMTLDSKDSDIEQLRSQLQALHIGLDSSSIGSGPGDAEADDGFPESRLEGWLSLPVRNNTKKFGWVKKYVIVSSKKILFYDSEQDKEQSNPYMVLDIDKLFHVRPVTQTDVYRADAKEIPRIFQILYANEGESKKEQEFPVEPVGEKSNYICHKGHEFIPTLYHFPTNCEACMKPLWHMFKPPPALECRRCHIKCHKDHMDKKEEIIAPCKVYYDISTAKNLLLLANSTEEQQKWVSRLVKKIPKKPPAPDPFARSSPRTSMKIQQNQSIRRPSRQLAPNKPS

| IC50 [nM] | Molecule |
| --- | --- |
| 8 | NC(=O)c1cccnc1O[C@H]1C[C@]2(C1)C[C@H](N1C(=O)NC(CC3CCCCC3)C1=O)C2 (single isomer, unassigned) [Example 2, 2-{[(αR)-6-[4-(cyclohexyl-methyl)-2,5-dioxoimidazol-idin-1-yl]spiro-[3.3]heptan-2-yl]-oxy}pyridine-3-carboxamide] |
| 91 | NC(=O)c1cccnc1O[C@H]1C[C@]2(C1)C[C@H](N1C(=O)NC(CC3CCCCC3)C1=O)C2 (single isomer, unassigned) [Example 6, 2-{[(αR)-6-(4-cyclohexylmethyl-2,5-dioxoimidazol-idin-1-yl)spiro-[3.3]heptan-2-yl]-oxy}pyridine-3-carboxamide] |
| 1710 | CC(C)(C)OC(=O)NCCC1NC(=O)N([C@H]2C[C@@]3(C[C@H](Oc4ncccc4C(N)=O)C3)C2)C1=O (single isomer, unassigned) [Example 20, tert-butyl N-(2-{2,5-dioxo-1-[(αR)-6-[(3-carbamoylpyridin-2-yl)oxy]spiro-[3.3]heptan-2-yl]-imidazolidin-4-yl}ethyl)carbamate] |
| 2380 | CC(C)(C)OC(=O)NCCC1NC(=O)N([C@H]2C[C@@]3(C[C@H](Oc4ncccc4C(N)=O)C3)C2)C1=O (single isomer, unassigned) [Example 21, tert-butyl N-(2-{2,5-dioxo-1-[(αR)-6-[(3-carbamoylpyridin-2-yl)oxy]spiro-[3.3]heptan-2-yl]-imidazolidin-4-yl}ethyl)carbamate] |
| 5 | CCC(CC)CC1NC(=O)N([C@H]2C[C@@]3(C[C@H](Oc4ncccc4C(N)=O)C3)C2)C1=O (single isomer, unassigned) [Example 38, 2-{[(αR)-6-(4-(2-ethylbutyl)-2,5-dioxoimidazolidin-1-yl]spiro[3.3]-heptan-2-yl]oxy}-pyridine-3-carbox-amide] |
| 22 | NC(=O)c1cccnc1O[C@H]1C[C@]2(C1)C[C@H](N1C(=O)NC(CCCC(F)(F)F)C1=O)C2 (single isomer, unassigned) [Example 42, 2-{[(αR)-6-[2,5-dioxo-4-(4,4,4-trifluorobutyl)-imidazolidin-1-yl]-spiro[3.3]heptan-2-yl]oxy}pyridine-3-carboxamide] |
| 23 | NC(=O)c1cccnc1O[C@H]1C[C@]2(C1)C[C@H](N1C(=O)NC(CCC3CCCCCC3)C1=O)C2 (single isomer, unassigned) [Example 43, 2-{[(αR)-6-[4-(2-cycloheptylethyl)-2,5-dioxoimidazol-idin-1-yl]spiro-[3.3]heptan-2-yl]-oxy}pyridine-3-carboxamide] |
| 62 | NC(=O)c1cccnc1O[C@H]1C[C@]2(C1)C[C@H](N1C(=O)NC(CCOCC(F)(F)F)C1=O)C2 (single isomer, unassigned) [Example 50, 2-{[(αR)-6-{2,5-dioxo-4-[2-(2,2,2-trifluoroethoxy)-ethyl]imidazolidin-3-yl}spiro[3.3]-heptan-2-yl]oxy}-pyridine-3-carbox-amide] |
| 212 | NC(=O)c1cccnc1O[C@H]1C[C@]2(C1)C[C@H](N1C(=O)NC(CC3CCCO3)C1=O)C2 (single isomer, unassigned) [Example 55] |
| 256 | NC(=O)c1cccnc1O[C@H]1C[C@]2(C1)C[C@H](N1C(=O)NC(CC(C(F)(F)F)C(F)(F)F)C1=O)C2 (single isomer, unassigned) [Example 56, 2-{[(αR)-6-{2,5-dioxo-4-[3,3,3-trifluoro-2-(trifluoromethyl)-propyl]imidazol-idin-1-yl}spiro-[3.3]heptan-2-yl]-oxy}pyridine-3-carboxamide] |
| 378 | NC(=O)c1cccnc1O[C@H]1C[C@]2(C1)C[C@H](N1C(=O)NC(CCOCC(F)(F)F)C1=O)C2 (single isomer, unassigned) [Example 61] |
| 802 | NC(=O)c1cccnc1O[C@H]1C[C@]2(C1)C[C@H](N1C(=O)NC(CC3CCCO3)C1=O)C2 (single isomer, unassigned) [Example 64, 2-{[(αR)-6-{2,5-dioxo-4-[(oxolan-2-yl)methyl]-imidazolidin-1-yl}-spiro[3.3]heptan-2-yl]oxy}pyridine-3-carboxamide] |
| 8 | [H][C@]1(Oc2ncccc2C(N)=O)C[C@]2(C[C@@H](N3C(=O)N[C@@H](CC(C)C)C3=O)C2)C1 (stereo partly drawn) [Example 1] |
| 9 | NC(=O)c1cccnc1OC1CC2(C1)CC(N1C(=O)CN(c3ccccc3)C1=O)C2 (stereo not drawn) [Example 3, 2-{[6-(2,5-dioxo-3-phenylimidazol-idin-1-yl)spiro-[3.3]heptan-2-yl]-oxy}pyridine-3-carboxamide] |
| 129 | CC(C)(C)C1NC(=O)N([C@H]2C[C@@]3(C[C@H](Oc4ncccc4C(N)=O)C3)C2)C1=O (stereo partly drawn) [Example 7, 2-{[(αR)-6-(4-tert-butyl-2,5-dioxo-imidazolidin-1-yl)spiro[3.3]-heptan-2-yl]oxy}-pyridine-3-carbox-amide] |
| 224 | NC(=O)c1cccnc1OC1CC2(C1)CC(N1C(=O)CN(Cc3ccccc3)C1=O)C2 (stereo not drawn) [Example 10, 2-{[6-(3-benzyl-2,5-dioxoimidazol-idin-1-yl)spiro-[3.3]heptan-2-yl]-oxy}pyridine-3-carboxamide] |
| 225 | NC(=O)c1cccnc1O[C@H]1C[C@]2(C1)C[C@H](N1C(=O)CN(CCc3ccccc3)C1=O)C2 (stereo partly drawn) [Example 11] |

The next lines start with the molecule.

| Molecule | IC50 [nM] |
| --- | --- |
| 2-((((R)-6-(4-((1-adamantyl)methyl)-2,5-dioxoimidazolidin-1-yl)spiro[3.3]heptan-2-yl)oxy)nicotinamide [Example 68] | 17 |
| NC(=O)c1cccnc1O[C@H]1C[C@]2(C1)C[C@H](N1C(=O)NC(CCc3ccccc3)C1=O)C2 (single isomer, unassigned) [Example 5, 2-{[(αR)-6-[2,5-dioxo-4-(2-phenylethyl)-imidazolidin-1-yl]spiro[3.3]-heptan-2-yl]oxy}-pyridine-3-carboxamide] | 25 |
| NC(=O)c1cccnc1O[C@H]1C[C@]2(C1)C[C@H](N1C(=O)NC(CCc3ccccc3)C1=O)C2 (single isomer, unassigned) [Example 12, 2-{[(αR)-6-(4-(2-phenylethyl)-2,5-dioxoimidazol-idin-1-yl)spiro-[3.3]heptan-2-yl]oxy}pyridine-3-carboxamide] | 270 |
| NC(=O)c1cccnc1O[C@H]1C[C@]2(C1)C[C@H](N1C(=O)NC(CC3CCCC3)C1=O)C2 (single isomer, unassigned) [Example 40, 2-{[(αR)-6-[4-(cyclopentyl-methyl)-2,5-dioxo-imidazolidin-1-yl]-spiro[3.3]heptan-2-yl]oxy}pyridine-3-carboxamide] | 14 |
| NC(=O)c1cccnc1O[C@H]1C[C@]2(C1)C[C@H](N1C(=O)NC(CC(C(F)(F)F)C(F)(F)F)C1=O)C2 (single isomer, unassigned) [Example 47] | 50 |
| CCC(CC)CC1NC(=O)N([C@H]2C[C@@]3(C[C@H](Oc4ncccc4C(N)=O)C3)C2)C1=O (single isomer, unassigned) [Example 48, 2-{[(αR)-6-[4-(2-ethylbutyl)-2,5-dioxoimidazolidin-1-yl]spiro[3.3]-heptan-2-yl]oxy}-pyridine-3-carbox-amide] | 56 |
| NC(=O)c1cccnc1O[C@H]1C[C@]2(C1)C[C@H](N1C(=O)NC(CC3CCCC3)C1=O)C2 (single isomer, unassigned) [Example 52] | 160 |
| NC(=O)c1cccnc1O[C@H]1C[C@]2(C1)C[C@H](N1C(=O)NC(CCC3CCCCCC3)C1=O)C2 (single isomer, unassigned) [Example 53, 2-{[(αR)-6-[4-(2-cycloheptylethyl)-2,5-dioxoimidazol-idin-1-yl]spiro-[3.3]-heptan-2-yl]-oxy}pyridine-3-carboxamide] | 171 |
| NC(=O)c1cccnc1O[C@H]1C[C@]2(C1)C[C@H](N1C(=O)NC(CCOC(F)(F)F)C1=O)C2 (single isomer, unassigned) [Example 57, 2-{[(αR)-6-{2,5-dioxo-4-[2-(tri-fluoromethoxy)-ethyl]imidazolidin-1-yl}spiro[3.3]-heptan-2-yl]oxy}-pyridine-3-carbox-amide] | 259 |
| NC(=O)c1cccnc1O[C@H]1C[C@]2(C1)C[C@H](N1C(=O)NC(CCOC(F)(F)F)C1=O)C2 (single isomer, unassigned) [Example 59, 2-{[(αR)-6-{2,5-dioxo-4-[2-(trifluoromethoxy)-ethyl]imidazolidin-1-yl}spiro[3.3]-heptan-2-yl]oxy}-pyridine-3-carbox-amide] | 303 |
| NC(=O)c1cccnc1O[C@H]1C[C@]2(C1)C[C@H](N1C(=O)NC(CCCC(F)(F)F)C1=O)C2 (single isomer, unassigned) [Example 60, 2-{[(αR)-6-[2,5-dioxo-4-(4,4,4-trifluorobutyl)-imidazolidin-1-yl]-spiro[3.3]heptan-2-yl]oxy}pyridine-3-carboxamide] | 311 |
| NC(=O)c1cccnc1O[C@H]1C[C@]2(C1)C[C@H](N1C(=O)NC3(CCCC3)C1=O)C2 (stereo partly drawn) [Example 8, 2-{[(αR)-6-{2,4-dioxo-1,3-diaza-spiro[4.4]nonan-3-yl}spiro[3.3]-heptan-2-yl]oxy}-pyridme-3-carbox-amide] | 190 |
| CC(C)(C)OCC1NC(=O)N([C@H]2C[C@@]3(C[C@H](Oc4ncccc4C(N)=O)C3)C2)C1=O (stereo partly drawn) [Example 9, 2-{[(αR)-6-(4-tert-butoxymethyl-2,5-dioxoimidazolidin-1-yl)spiro[3.3]-heptan-2-yl]oxy}-pyridine-3-carbox-amide] | 219 |

Reference: patent US11447487B2, “Spiroheptanyl hydantoins as rock inhibitors” (BRISTOL-MYERS SQUIBB COMPANY, priority 2017, dated 2022)
